# Data: ChEMBL document CHEMBL5042540, “Discovery of Pteridine-7(8H)-one Derivatives as Potent and Selective Inhibitors of Bruton's Tyrosine Kinase (BTK)” (J Med Chem, 2022)
# Assays:
# in vivo [1] = conditions: Sprague-Dawley, rat, iv, 1 mg/kg
# in vivo [2] = conditions: Sprague-Dawley, rat, po, 10 mg/kg
# in vivo [3] = conditions: Sprague-Dawley, rat, iv, 1 mg/kg; remark: listed apart in the source
# in vivo [4] = conditions: Sprague-Dawley, rat, iv, 1 mg/kg; remark: listed apart in the source
# in vivo [5] = conditions: Sprague-Dawley, rat, iv, 1 mg/kg; remark: listed apart in the source
# in vivo [6] = conditions: Sprague-Dawley, rat, po, 10 mg/kg; remark: listed apart in the source
smiles,measurement,setting,value
C=CC(=O)Nc1cccc(-n2c(=O)c(C3CCCCC3)nc3cnc(Nc4cccc(OCCOC)c4)nc32)c1,Vd,in vivo [1],1.16 L/kg
same,AUC(0-t),in vivo [2],66.9 ng·h/mL
same,AUC(0-t),in vivo [3],290 ng·h/mL
same,half-life,in vivo [4],26.4 min
same,clearance,in vivo [5],58.2 mL/min/kg
same,bioavailability,in vivo [6],2.31%
